Data: ChEMBL document CHEMBL4507285, “Data for DCP probe MRL-SYKi” (2021)

Experiments:
Rattus norvegicus = species: Rattus norvegicus; details: Compound concentration 10.0 uM
[1] = biological target: Dual specificity protein kinase TTK (Homo sapiens) (UniProt P33981); details: Compound concentration 100.0 nM
[2] = biological target: 5-hydroxytryptamine receptor 3A (Homo sapiens) (UniProt P46098); details: Compound concentration 10.0 uM
[3] = biological target: Non-receptor tyrosine-protein kinase TNK1 (Homo sapiens) (UniProt Q13470); details: Compound concentration 100.0 nM
[4] = biological target: Kappa-type opioid receptor (Homo sapiens) (UniProt P41145); details: Compound concentration 10.0 uM
[5] = biological target: MAP kinase-activated protein kinase 5 (Homo sapiens) (UniProt Q8IW41); details: Compound concentration 100.0 nM
MAP kinase-activated protein kinase 5 (Homo sapiens), sequence (Q8IW41 whole entry): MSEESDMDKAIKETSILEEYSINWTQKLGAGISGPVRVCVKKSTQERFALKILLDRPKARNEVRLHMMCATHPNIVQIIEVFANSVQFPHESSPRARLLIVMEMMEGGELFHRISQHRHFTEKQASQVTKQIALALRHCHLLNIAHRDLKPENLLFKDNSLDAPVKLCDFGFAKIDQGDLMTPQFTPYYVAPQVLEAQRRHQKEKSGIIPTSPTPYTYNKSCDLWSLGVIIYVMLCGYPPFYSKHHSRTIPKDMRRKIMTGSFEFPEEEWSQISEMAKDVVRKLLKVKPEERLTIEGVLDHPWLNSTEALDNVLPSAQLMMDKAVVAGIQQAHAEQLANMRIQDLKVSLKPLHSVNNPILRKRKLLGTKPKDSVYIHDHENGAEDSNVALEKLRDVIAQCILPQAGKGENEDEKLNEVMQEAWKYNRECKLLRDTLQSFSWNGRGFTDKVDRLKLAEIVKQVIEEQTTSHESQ

[6] = biological target: Phosphatidylinositol 4-phosphate 5-kinase type-1 alpha (Homo sapiens) (UniProt Q99755); details: Compound concentration 100.0 nM
Phosphatidylinositol 4-phosphate 5-kinase type-1 alpha (Homo sapiens), sequence (Q99755 whole entry): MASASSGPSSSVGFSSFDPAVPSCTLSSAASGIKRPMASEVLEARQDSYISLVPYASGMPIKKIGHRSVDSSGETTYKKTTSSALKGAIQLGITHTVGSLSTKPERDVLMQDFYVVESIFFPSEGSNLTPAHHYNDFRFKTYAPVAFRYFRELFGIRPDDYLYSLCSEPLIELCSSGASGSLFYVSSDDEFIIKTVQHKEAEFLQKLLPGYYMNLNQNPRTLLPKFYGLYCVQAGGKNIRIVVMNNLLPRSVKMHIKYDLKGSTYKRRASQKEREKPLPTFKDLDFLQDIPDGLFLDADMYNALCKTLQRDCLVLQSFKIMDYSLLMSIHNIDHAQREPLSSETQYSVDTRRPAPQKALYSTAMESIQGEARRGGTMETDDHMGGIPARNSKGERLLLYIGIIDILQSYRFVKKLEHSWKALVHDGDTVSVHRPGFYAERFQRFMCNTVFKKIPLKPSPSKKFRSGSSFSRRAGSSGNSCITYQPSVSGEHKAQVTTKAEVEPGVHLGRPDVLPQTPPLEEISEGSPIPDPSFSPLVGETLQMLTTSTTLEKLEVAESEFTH

[7] = system: Mast/stem cell growth factor receptor Kit (Homo sapiens), P10721 [D816H]; details: Compound concentration 100.0 nM
[8] = biological target: Alpha-1B adrenergic receptor (Homo sapiens) (UniProt P35368); details: Compound concentration 10.0 uM
[9] = biological target: Tyrosine-protein kinase JAK2 (Homo sapiens, UniProt O60674); details: Compound concentration 100.0 nM
[10] = biological target: Inhibitor of nuclear factor kappa-B kinase subunit beta (Homo sapiens) (UniProt O14920); details: Compound concentration 100.0 nM
Inhibitor of nuclear factor kappa-B kinase subunit beta (Homo sapiens), sequence (O14920 whole entry): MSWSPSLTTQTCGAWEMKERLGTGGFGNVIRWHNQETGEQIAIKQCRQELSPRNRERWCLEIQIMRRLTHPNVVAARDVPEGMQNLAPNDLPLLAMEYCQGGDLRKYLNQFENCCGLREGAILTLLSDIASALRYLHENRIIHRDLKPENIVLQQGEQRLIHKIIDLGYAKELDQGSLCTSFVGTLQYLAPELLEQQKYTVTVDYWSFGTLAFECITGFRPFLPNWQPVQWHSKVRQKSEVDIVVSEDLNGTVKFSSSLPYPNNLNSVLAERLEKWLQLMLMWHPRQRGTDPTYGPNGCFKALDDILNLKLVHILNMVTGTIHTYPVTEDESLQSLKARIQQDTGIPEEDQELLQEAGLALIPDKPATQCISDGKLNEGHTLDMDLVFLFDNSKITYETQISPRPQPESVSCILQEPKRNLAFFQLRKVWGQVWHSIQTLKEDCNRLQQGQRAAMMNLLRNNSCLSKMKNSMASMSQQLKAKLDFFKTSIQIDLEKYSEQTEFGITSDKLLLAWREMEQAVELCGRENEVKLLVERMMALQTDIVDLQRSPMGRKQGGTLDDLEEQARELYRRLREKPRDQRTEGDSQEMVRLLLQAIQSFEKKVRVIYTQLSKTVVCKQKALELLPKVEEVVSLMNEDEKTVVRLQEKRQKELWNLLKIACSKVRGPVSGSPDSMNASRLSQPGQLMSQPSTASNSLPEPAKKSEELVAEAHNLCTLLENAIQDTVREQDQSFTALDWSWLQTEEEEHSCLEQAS

[11] = biological target: Homeodomain-interacting protein kinase 3 (Homo sapiens) (UniProt Q9H422); details: Compound concentration 100.0 nM
[12] = biological target: Cyclin-dependent kinase-like 3 (Homo sapiens) (UniProt Q8IVW4); details: Compound concentration 100.0 nM
[13] = biological target: TGF-beta receptor type-2 (Homo sapiens) (UniProt P37173); details: Compound concentration 100.0 nM
TGF-beta receptor type-2 (Homo sapiens), sequence (P37173 whole entry): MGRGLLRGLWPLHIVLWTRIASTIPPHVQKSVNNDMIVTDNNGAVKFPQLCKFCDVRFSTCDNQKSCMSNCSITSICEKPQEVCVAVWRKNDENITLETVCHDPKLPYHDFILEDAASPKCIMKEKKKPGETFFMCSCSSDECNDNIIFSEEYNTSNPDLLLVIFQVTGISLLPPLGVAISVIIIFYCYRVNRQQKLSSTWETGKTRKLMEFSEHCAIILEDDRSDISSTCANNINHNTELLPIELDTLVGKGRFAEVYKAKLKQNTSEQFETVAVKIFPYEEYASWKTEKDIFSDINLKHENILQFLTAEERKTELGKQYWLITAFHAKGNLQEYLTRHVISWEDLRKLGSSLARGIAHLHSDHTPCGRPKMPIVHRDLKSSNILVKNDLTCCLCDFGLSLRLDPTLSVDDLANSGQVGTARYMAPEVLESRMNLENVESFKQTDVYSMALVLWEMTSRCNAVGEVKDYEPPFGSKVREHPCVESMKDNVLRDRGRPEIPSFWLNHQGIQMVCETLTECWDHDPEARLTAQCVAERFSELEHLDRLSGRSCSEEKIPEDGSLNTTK

[14] = biological target: Cytoplasmic tyrosine-protein kinase BMX (Homo sapiens) (UniProt P51813); details: Compound concentration 100.0 nM
[15] = biological target: Mitogen-activated protein kinase kinase kinase kinase 2 (Homo sapiens) (UniProt Q12851); details: Compound concentration 100.0 nM
[16] = biological target: TRAF2 and NCK-interacting protein kinase (Homo sapiens) (UniProt Q9UKE5); details: Compound concentration 100.0 nM
[17] = biological target: Aurora kinase A (Homo sapiens) (UniProt O14965); details: Compound concentration 100.0 nM
[18] = biological target: Serine/threonine-protein kinase 17A (Homo sapiens) (UniProt Q9UEE5); details: Compound concentration 100.0 nM
[19] = biological target: Myosin-IIIa (Homo sapiens) (UniProt Q8NEV4); details: Compound concentration 100.0 nM
[20] = biological target: Interleukin-1 receptor-associated kinase 4 (Homo sapiens) (UniProt Q9NWZ3); details: Compound concentration 100.0 nM
[21] = biological target: Serine/threonine-protein kinase PAK 3 (Homo sapiens) (UniProt O75914); details: Compound concentration 100.0 nM
Serine/threonine-protein kinase PAK 3 (Homo sapiens), sequence (O75914 whole entry, looked up): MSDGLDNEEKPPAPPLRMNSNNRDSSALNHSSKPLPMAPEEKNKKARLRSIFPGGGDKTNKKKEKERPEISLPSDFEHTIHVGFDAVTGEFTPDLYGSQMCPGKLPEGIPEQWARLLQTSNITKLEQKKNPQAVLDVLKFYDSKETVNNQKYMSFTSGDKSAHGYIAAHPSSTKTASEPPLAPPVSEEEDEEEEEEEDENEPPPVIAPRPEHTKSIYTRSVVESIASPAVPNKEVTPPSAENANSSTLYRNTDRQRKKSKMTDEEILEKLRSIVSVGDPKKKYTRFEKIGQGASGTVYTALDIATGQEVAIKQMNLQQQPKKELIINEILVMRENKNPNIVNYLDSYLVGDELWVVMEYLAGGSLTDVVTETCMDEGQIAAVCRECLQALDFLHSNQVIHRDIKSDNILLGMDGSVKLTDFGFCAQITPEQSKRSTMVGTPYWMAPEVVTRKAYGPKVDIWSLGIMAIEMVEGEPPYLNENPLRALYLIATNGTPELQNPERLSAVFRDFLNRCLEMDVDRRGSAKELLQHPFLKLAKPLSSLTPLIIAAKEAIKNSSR

[22] = biological target: MAP kinase-interacting serine/threonine-protein kinase 1 (Homo sapiens) (UniProt Q9BUB5); details: Compound concentration 100.0 nM
[23] = biological target: Mitogen-activated protein kinase kinase kinase kinase 3 (Homo sapiens) (UniProt Q8IVH8); details: Compound concentration 100.0 nM
[24] = biological target: Insulin receptor (Homo sapiens) (UniProt P06213); details: Compound concentration 100.0 nM
[25] = biological target: Cyclin-dependent kinase 4 (Homo sapiens) (UniProt P11802); details: Compound concentration 100.0 nM
[26] = biological target: Myotonin-protein kinase (Homo sapiens) (UniProt Q09013); details: Compound concentration 100.0 nM
[27] = system: Tyrosine-protein kinase ABL1 (Homo sapiens), P00519 [E255K]; details: Compound concentration 100.0 nM
[28] = biological target: Ephrin type-B receptor 2 (Homo sapiens) (UniProt P29323); details: Compound concentration 100.0 nM
[29] = biological target: SRSF protein kinase 2 (Homo sapiens) (UniProt P78362); details: Compound concentration 100.0 nM
[30] = biological target: Tyrosine-protein kinase BTK (Homo sapiens) (UniProt Q06187); details: Compound concentration 100.0 nM
Tyrosine-protein kinase BTK (Homo sapiens), sequence (Q06187 whole entry): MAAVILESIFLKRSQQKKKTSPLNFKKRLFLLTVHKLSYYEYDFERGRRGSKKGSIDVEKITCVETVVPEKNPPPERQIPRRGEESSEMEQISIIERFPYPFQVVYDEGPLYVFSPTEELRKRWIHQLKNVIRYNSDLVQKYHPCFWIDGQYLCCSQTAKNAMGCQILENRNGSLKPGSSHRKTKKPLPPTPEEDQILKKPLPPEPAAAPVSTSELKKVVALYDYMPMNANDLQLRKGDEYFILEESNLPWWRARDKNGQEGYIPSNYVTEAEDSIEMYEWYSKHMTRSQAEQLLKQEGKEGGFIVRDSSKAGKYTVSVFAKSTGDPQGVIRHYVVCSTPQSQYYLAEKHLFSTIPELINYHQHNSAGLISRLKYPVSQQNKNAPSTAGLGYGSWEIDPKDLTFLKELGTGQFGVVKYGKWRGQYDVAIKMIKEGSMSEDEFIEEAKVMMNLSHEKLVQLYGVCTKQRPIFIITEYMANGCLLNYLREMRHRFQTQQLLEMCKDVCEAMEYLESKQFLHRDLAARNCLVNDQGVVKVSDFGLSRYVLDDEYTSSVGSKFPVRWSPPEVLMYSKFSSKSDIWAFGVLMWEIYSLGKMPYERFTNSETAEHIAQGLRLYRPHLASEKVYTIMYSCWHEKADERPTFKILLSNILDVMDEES

[31] = biological target: Mitogen-activated protein kinase kinase kinase 12 (Homo sapiens) (UniProt Q12852); details: Compound concentration 100.0 nM
[32] = biological target: Serine/threonine-protein kinase Chk2 (Homo sapiens) (UniProt O96017); details: Compound concentration 100.0 nM
[33] = system: Tyrosine-protein kinase ABL1 (Homo sapiens), P00519 [F317L]; details: Compound concentration 100.0 nM
[34] = biological target: Serine/threonine-protein kinase 32C (Homo sapiens) (UniProt Q86UX6); details: Compound concentration 100.0 nM
[35] = biological target: SRSF protein kinase 3 (Homo sapiens) (UniProt Q9UPE1); details: Compound concentration 100.0 nM
[36] = biological target: Activin receptor type-1 (Homo sapiens) (UniProt Q04771); details: Compound concentration 100.0 nM
[37] = system: Phosphatidylinositol 4,5-bisphosphate 3-kinase catalytic subunit alpha isoform (Homo sapiens), P42336 [M1043I]; details: Compound concentration 100.0 nM
[38] = biological target: Tyrosine-protein kinase receptor UFO (Homo sapiens) (UniProt P30530); details: Compound concentration 100.0 nM
[39] = biological target: Homeodomain-interacting protein kinase 1 (Homo sapiens) (UniProt Q86Z02); details: Compound concentration 100.0 nM
[40] = system: Mast/stem cell growth factor receptor Kit (Homo sapiens), P10721 [D816V]; details: Compound concentration 100.0 nM
[41] = biological target: Serine/threonine-protein kinase SIK2 (Homo sapiens) (UniProt Q9H0K1); details: Compound concentration 100.0 nM
[42] = biological target: Muscarinic acetylcholine receptor M5 (Homo sapiens) (UniProt P08912); details: Compound concentration 10.0 uM
[43] = biological target: 5-hydroxytryptamine receptor 5A (Homo sapiens) (UniProt P47898); details: Compound concentration 10.0 uM
[44] = biological target: 5'-AMP-activated protein kinase catalytic subunit alpha-2 (Homo sapiens) (UniProt P54646); details: Compound concentration 100.0 nM
5'-AMP-activated protein kinase catalytic subunit alpha-2 (Homo sapiens), sequence (P54646 whole entry, looked up): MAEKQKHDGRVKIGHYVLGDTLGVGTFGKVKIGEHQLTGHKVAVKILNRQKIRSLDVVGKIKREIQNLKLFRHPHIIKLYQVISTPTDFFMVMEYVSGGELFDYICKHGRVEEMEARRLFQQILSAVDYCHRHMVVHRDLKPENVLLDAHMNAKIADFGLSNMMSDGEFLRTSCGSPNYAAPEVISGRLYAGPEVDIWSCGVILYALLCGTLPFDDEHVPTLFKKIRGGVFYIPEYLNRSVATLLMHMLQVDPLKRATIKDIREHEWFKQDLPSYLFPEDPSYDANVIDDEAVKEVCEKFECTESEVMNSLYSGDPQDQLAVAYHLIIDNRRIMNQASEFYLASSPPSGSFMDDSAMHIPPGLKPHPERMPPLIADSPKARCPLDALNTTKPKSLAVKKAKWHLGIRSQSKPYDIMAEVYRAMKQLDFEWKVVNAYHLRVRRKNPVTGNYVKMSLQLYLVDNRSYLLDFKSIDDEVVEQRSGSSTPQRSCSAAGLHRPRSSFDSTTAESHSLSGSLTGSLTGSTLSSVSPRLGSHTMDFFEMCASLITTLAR

[45] = biological target: Sodium-dependent dopamine transporter (Homo sapiens) (UniProt Q01959); details: Compound concentration 10.0 uM

Dual specificity protein kinase TTK (Homo sapiens), sequence (P33981 whole entry): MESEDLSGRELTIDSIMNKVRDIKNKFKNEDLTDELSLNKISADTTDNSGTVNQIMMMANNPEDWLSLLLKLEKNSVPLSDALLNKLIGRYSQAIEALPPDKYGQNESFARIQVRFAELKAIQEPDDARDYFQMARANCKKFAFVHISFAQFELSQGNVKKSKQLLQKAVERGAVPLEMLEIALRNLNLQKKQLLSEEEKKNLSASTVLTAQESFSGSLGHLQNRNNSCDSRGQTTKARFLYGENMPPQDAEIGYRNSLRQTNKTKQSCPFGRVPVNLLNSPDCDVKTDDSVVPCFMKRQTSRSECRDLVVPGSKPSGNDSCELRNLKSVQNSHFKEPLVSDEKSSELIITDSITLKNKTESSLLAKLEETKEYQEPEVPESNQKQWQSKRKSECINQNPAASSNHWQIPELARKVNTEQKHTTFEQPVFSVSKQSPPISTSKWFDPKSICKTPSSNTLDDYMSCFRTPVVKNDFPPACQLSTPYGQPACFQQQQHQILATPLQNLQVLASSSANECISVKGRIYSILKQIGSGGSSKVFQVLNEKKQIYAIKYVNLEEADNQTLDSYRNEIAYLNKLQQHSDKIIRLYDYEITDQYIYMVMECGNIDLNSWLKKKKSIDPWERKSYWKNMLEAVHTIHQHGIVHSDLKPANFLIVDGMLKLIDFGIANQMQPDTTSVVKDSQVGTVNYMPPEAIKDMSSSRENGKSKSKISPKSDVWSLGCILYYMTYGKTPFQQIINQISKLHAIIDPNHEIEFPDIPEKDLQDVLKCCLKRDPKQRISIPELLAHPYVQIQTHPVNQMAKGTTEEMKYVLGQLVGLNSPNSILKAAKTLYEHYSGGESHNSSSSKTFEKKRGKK

Work on `Cc1ccc(-c2cnc([C@@]3(O)CC[C@H](C(=O)O)C(C)(C)C3)s2)cc1Nc1cccc(C(F)(F)F)n1` [MRL-SYKi-NC] yielded an inhibition (Rattus norvegicus) of 71.8%, a residual activity [1] of 78.8% and an inhibition [2] of -1.96%. For the same compound, the residual activity [3] was 100%, the inhibition [4] was -5.83% and the residual activity [5] was 97.7%. It also gave a residual activity [6] of 93%, a residual activity [7] of 61.4% and an inhibition [8] of 7.9%. For the same compound, the residual activity [9] was 96.6%, the residual activity [10] was 43.1% and the residual activity [11] was 88.3%. For the same compound, the residual activity [12] was 100%, the residual activity [13] was 100% and the residual activity [14] was 100%. For the same compound, the residual activity [15] was 100%, the residual activity [16] was 75.8% and the residual activity [17] was 60.2%. It also gave a residual activity [18] of 96.7%, a residual activity [19] of 70.1% and a residual activity [20] of 48.8%. The residual activity [21] was 76.3%, the residual activity [22] was 75% and the residual activity [23] was 100%. The residual activity [24] was 78.7%, the residual activity [25] was 93.4% and the residual activity [26] was 93.7%. It also gave a residual activity [27] of 80.8%, a residual activity [28] of 100% and a residual activity [29] of 91.9%. The residual activity [30] was 86.1%, the residual activity [31] was 99.3% and the residual activity [32] was 100%. It also gave a residual activity [33] of 99.1%, a residual activity [34] of 100% and a residual activity [35] of 100%. The residual activity [36] was 100%, the residual activity [37] was 90.4% and the residual activity [38] was 100%. For the same compound, the residual activity [39] was 84.8%, the residual activity [40] was 100% and the residual activity [41] was 88.9%. For the same compound, the inhibition [42] was -4.28%, the inhibition [43] was -4.56% and the residual activity [44] was 94.7%. It also gave an inhibition [45] of 71%.
Compound `Cc1cc(Nc2nccc(C)n2)cc(-c2cnc([C@@]3(O)CC[C@H](C(=O)O)C(C)(C)C3)s2)c1` [MRL-SYKi] has an inhibition (Rattus norvegicus) of 3.63%, a residual activity [1] of 74.8% and an inhibition [2] of -3.85%. It also gave a residual activity [3] of 100%, an inhibition [4] of 30.6% and a residual activity [5] of 100%. It also gave a residual activity [6] of 100%, a residual activity [7] of 97.7% and an inhibition [8] of 3.23%. It also gave a residual activity [9] of 45.5%, a residual activity [10] of 100% and a residual activity [11] of 87.3%. For the same compound, the residual activity [12] was 100%, the residual activity [13] was 49.5% and the residual activity [14] was 95.1%. The residual activity [15] was 100%, the residual activity [16] was 100% and the residual activity [17] was 100%. For the same compound, the residual activity [18] was 99.6%, the residual activity [19] was 100% and the residual activity [20] was 100%. The residual activity [21] was 100%, the residual activity [22] was 94.8% and the residual activity [23] was 100%. It also gave a residual activity [24] of 100%, a residual activity [25] of 100% and a residual activity [26] of 99.8%. For the same compound, the residual activity [27] was 55.1%, the residual activity [28] was 100% and the residual activity [29] was 100%. The residual activity [30] was 81.5%, the residual activity [31] was 66.9% and the residual activity [32] was 100%. The residual activity [33] was 100%, the residual activity [34] was 85.9% and the residual activity [35] was 100%. It also gave a residual activity [36] of 59.3%, a residual activity [37] of 61.8% and a residual activity [38] of 100%. For the same compound, the residual activity [39] was 52.3%, the residual activity [40] was 100% and the residual activity [41] was 95.7%. For the same compound, the inhibition [42] was 0.943%, the inhibition [43] was 10% and the residual activity [44] was 100%. For the same compound, the inhibition [45] was 39.3%.
